Measured values taken from patent US8697736B2, “1H-benzimidazole-4-carboxamides substituted with phenyl at the 2-position are potent PARP inhibitors” (AbbVie Inc., priority 2005, dated 2014).

Test system: MX-1 Breast Carcinoma Xenograft
Assay: PARP inhibitors in combination with cisplatin in an early staged MX-1 breast carcinoma xenograft model
Assay type: in vivo, female SCID mice
Conditions: average tumor volume at Day 48; PARPi 25 or 0 mg/kg/day s.c. OMP x7 from day 16 + cisplatin 6 mg/kg/day i.p. qd x1 on day 18; footnote a not given; in mm³ (unit assumed)
Experimental: PARP Inhibitors in Combination with Cisplatin in an Early Staged MX-1 Breast Carcinoma Xenograft Model
0.2 cc of 1:10 MX-1 tumor brei, was injected subcutaneously into the flank of female SCID mice (Charles River Labs) on study day 0. On day 15, tumors were size matched (188±25 mm^3) and the animals were placed into one of two therapy groups:
Group 1 vehicle (s.c. OMP×7)+Cisplatin 6 mg/kg/day (i.p., qd×1)
Group 2 PARPi 25 mg/kg/day (s.c. OMP×7)+Cisplatin 6 mg/kg/day (i.p., qd×1) The vehicle for both the PARP inhibitor and cisplatin was 0.9% NaCl. There were 8-10 […] in each group. Treatment with the PARPi began on day 16 while cisplatin treatment was started on day 18. At various intervals following tumor cell inoculation, the individual tumor dimensions were serially measured using calibrated microcalipers and the tumor volumes calculated according to the formula V=L×W^2/2 (V:volume, L:length, W:width). Mice were humanely euthanized when the tumor volumes reached a predetermined size.

N.N.[Cl][Pt][Cl] [Vhl (PARPi)/Cis, Cisplatin]
Tumor Volume (Day 48): 1389 ± 300
